Where two headings read alike, the source gives them in different places.
Experiments:
HMVECLs [1] = assay: IL-8-directed neutrophil transendothelial migration (TEM) assay; assay type: cell-based, human
Procedure: Neutrophil transendothelial migration (TEM) assay: Neutrophils were isolated from heparinized venous blood that was collected from healthy volunteers using a protocol approved by the University of Maryland Institutional Review Board and TEM of calcein-labeled neutrophils through HMVECLs was measured.

[2] = biological target: T1, p38α mutant (R49K/HL107-8TF/K165R) (Homo sapiens, UniProt Q16539, H107T/K165R/L108F/R49K); assay: DSF, binding to p38α mutant with 4 mutations in CADD-targeted pocket; conditions: four of ten target pocket amino acids substituted
T1 construct: made in house; host or cells: E. coli BL21
T1 sequence (Q16539 whole entry R49K/H107T/L108F/K165R): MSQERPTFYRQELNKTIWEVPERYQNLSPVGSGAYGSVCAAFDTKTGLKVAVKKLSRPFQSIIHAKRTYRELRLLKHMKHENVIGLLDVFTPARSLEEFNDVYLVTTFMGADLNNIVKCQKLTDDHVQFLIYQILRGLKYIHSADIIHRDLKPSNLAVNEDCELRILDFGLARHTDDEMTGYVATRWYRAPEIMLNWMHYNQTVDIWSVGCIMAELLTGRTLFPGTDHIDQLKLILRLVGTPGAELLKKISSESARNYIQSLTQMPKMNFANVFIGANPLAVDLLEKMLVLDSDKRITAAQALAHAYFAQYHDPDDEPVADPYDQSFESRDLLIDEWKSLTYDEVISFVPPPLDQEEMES

[3] = system: LPS-induced acute lung injury in mice; assay: Mouse LPS acute lung injury model with UM101 analogues, total protein in lung lavage fluid (FIG. 9, FIG. 10); assay type: in vivo; conditions: FIG. 9: pretreated i.p. with 1 mg, then 100 mg LPS i.t. at 39° C.
Procedure: FIG. 9 illustrates that UM101 and analogues inhibit acute lung injury in a mouse model. Mice were pretreated i.p. with 1 mg of test compounds and then treated with […] LPS i.t. at 39° C. to induce inflammation. Lung injury was assessed by measuring total protein in the lung lavage fluid.
FIG. 10 illustrates that UM101 and analogues inhibit acute lung injury in a mouse model. All mice received 50 μg LPS i.t. and were kept 24 h at 39° C.; all treatments 1 mg in 0.5 ml DMSO given 6 h post-LPS; mean SM, n=5, *p=0.03 vs DMSO #1; †p=0.16 vs DMSO #2. Lung injury was assessed by measuring total protein in the lung lavage fluid.
First, the compounds can block thrombin-induced cell permeability in human vascular endothelial cells (FIG. 8). […] Mice were pretreated i.p. with 1 mg of test compounds and then treated with […] LPS i.t. at 39° C. to induce inflammation. Lung injury was assessed by measuring total protein in the lung lavage fluid. […] All mice received 50 μg LPS i.t. and were kept 24 h at 39° C.; all treatments 1 mg in 0.5 ml DMSO given 6 h post-LPS; mean±SM, n=5, *p=0.03 vs DMSO #1; †p=0.16 vs DMSO #2. Lung injury was assessed by measuring total protein in the lung lavage fluid.

p38β = biological target: T2, p38β (Homo sapiens, UniProt Q15759); assay: DSF, binding to p38β
T2 construct: HA (N); made in house; host or cells: E. coli BL21
T2 sequence (Q15759 whole entry): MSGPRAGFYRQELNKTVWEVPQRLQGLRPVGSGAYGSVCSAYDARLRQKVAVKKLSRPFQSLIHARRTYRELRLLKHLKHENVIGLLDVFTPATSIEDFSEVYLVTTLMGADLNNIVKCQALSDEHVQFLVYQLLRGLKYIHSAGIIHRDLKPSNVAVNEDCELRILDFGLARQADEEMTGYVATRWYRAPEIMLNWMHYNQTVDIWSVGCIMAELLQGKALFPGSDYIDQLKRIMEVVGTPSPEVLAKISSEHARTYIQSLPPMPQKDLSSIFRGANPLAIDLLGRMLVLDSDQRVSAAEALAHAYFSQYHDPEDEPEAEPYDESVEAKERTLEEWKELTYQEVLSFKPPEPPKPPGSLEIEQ

p38α [4] = biological target: T3, p38α (Homo sapiens, UniProt Q16539); assay: STD-NMR with p38α; assay type: binding; design: made in house; host or cells: E. coli BL21; conditions: 200 μM UM101, 5 μM protein
T3 sequence (Q16539 whole entry): as the sequence (Q16539 whole entry R49K/H107T/L108F/K165R) above, with K49R, T107H, F108L, R165K counted along it
Procedure: Saturation Transfer Difference Nuclear Magnetic Resonance (STD-NMR): A 40 mM stock solution of UM101 was made in d6-DMSO. STD-NMR samples contained 150 mM NaCl, 50 mM phosphate, pH 7,200 μM UM101, and 5 μM p38 protein in D20. Spectra were recorded on an Agilent DD2 500-MHz spectrometer equipped with a 5-mm inverse HFCN probe head at 300 K. During each transient, the protein was saturated with a series of 58 […]-shaped pulses (50 ms, 1 ms delay between pulses) using the vendor-supplied STD-ES pulse sequence, for a total saturation time of 3 seconds. The on-resonance irradiation of protein was done at 0.5 ppm and off-resonance irradiation at 30 ppm. The vendor-supplied WATERGATE pulse sequence was used to suppress the water signal in the STD spectrum. The on-resonance and off-resonance pulse sequences were subtracted internally. A total of 16,384 transients were collected for each STD experiment with a 1 second delay between acquisitions, 6000 Hz spectral width, and 1.3 second acquisition time.
Selective binding of UM101 to the CADD-targeted pocket in p38α was confirmed using Saturation Transfer Difference (STD)-NMR. The peaks in the 1D spectrum are labeled according to tentative peak assignments of UM101 in aqueous form, based on assignments of UM101 in 2 mM d6-DMSO, which were obtained from the use of 1D proton and C13 and 2D-HMBC experiments. […]

HMVECLs [5] = assay: LDH release cytotoxicity assay; assay type: cell-based, human; conditions: 100 μM for 48 h
Procedure: (§1) Cytotoxicity of HMVECL exposed to 10-100 μM of each compound is analyzed by MTS assay (Promega), LDH release (Promega), and immunoblotting for activated caspase-3 (Cell Signaling).

ERK2 = ERK2 (Homo sapiens, UniProt P28482); assay: DSF, binding to ERK2; conditions: 10-100 μM
Chain of ERK2 (P28482 whole entry, species assumed): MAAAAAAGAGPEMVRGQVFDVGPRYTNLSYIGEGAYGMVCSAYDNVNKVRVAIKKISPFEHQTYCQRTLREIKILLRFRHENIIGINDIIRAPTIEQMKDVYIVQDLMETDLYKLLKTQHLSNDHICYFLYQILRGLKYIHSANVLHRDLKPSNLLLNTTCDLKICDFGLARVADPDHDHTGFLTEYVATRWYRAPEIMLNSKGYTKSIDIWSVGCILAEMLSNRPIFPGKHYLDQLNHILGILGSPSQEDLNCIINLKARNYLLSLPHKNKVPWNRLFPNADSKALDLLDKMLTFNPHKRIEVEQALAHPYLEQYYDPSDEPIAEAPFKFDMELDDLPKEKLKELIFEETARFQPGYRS
Procedure: Differential Scanning Fluorimetry (DSF): Binding of CADD selected compounds to p38α and […] was tested experimentally using DSF, which evaluates changes in the target protein melting temperature (ΔTm) due to interactions with test compound. SYPRO orange (Invitrogen; diluted 1:1000 in 10 mM HEPES, 150 mM NaCl, pH 7.5) and 1 μM unphosphorylated recombinant human p38α were added to 96-well PCR plates, then 50 nM to 200 μM test compound in 100% DMSO (2% final DMSO concentration) was added, the plates mixed, sealed, centrifuged at 1000 rpm for 1 min, and melting curve performed using an Applied Biosystems real time PCR instrument. The melting point was determined from the first derivative curve. In addition, […], or target-disrupted p38α mutant are used as well.
Test compounds at 10-100 μM were screened for binding to recombinant p38α and ERK2 using DSF (FIG. 1e, Table 1).

[6] = system: LPS/hyperthermia-induced ALI in mice
p38α [7] = biological target: T3, p38α; assay: Differential scanning fluorimetry (DSF), binding to p38α
HMVECLs [8] = assay: MTS cytotoxicity assay; assay type: cell-based, human; conditions: 100 μM for 48 h
Procedure: as §1
Cytotoxicity assay: Cytotoxicity was monitored in parallel HMVEC-L monolayers established in 96-well culture plates using a colorimetric assay that measured reduction of 3-(4,5-dimethylthiazol-2-yl)-5-(3-carboxymethoxyphenyl)-2-(4-sulfophenyl)-2H-tetrazolium (MTS) to a formazan dye (CellTiter 96™; Promega; Madison, Wis.) according to the manufacturer's protocol and quantifying product formation by measuring absorption at 490 nm.

Q: Which results are given for `O=C(Nc1ccc(CN2CCS(=O)(=O)CC2)cc1)c1ccc(Cl)cc1` [UM101, 4-chloro-N-{4-[(1,1-dioxo-1lambda˜6˜,4-thiazinan-4-yl)methyl]phenyl}benzamide]?
A: reduction of hyperthermia-augmented neutrophil TEM (HMVECLs [1]; 10 μM): 95%; reduction of hyperthermia-augmented neutrophil TEM (HMVECLs [1]; 25 μM): less than baseline levels; reduction of hyperthermia-augmented neutrophil TEM (HMVECLs [1]; 50 μM): less than baseline levels; binding to p38α mutant (DSF) [2]: no UM101-binding; protein leak into bronchoalveolar lavage fluid (total protein) [3]: reduced protein leak; stabilization of p38β (DSF) (p38β): only stabilized p38α; interaction with p38α (STD-NMR) (p38α [4]): protons in both aromatic rings of UM101 interact with p38α; toxicity in LDH release assay (HMVECLs [5]): Neither compound was toxic; stabilization of ERK2 (DSF) (ERK2): not ERK2; reduction of lavage neutrophil content vs. DMSO-treated controls ([6]; 100 μg i.p.): 44.4%; reduction of lavage neutrophil content vs. DMSO-treated controls ([6]; 300 μg i.p.): 49.5%; reduction of lavage neutrophil content vs. DMSO-treated controls ([6]; 500 μg i.p.): 55.3%; reduction of lavage neutrophil content vs. DMSO-treated controls ([6]; 1000 μg i.p.): 54%; survival of pretreated mice ([6]; 100, 300, 500 or 1000 μg i.p., 24 h): All sixteen UM101-pretreated mice survived; stabilization of p38α (DSF) (p38α [7]; 10-100 μM): only stabilized p38α; ΔTm at 100 µM (p38α [7]; read-out: increase of the melting temperature of p38α): ~0.7 °C; toxicity in MTS assay (HMVECLs [8]): Neither compound was toxic
